Source: patent US11364280B2, “Method for blocking stress-induced tumor progression” (Taipei Veterans General Hospital, priority 2018, dated 2022)

How the values were obtained:
MSI1/AGO2 interaction = MSI1/AGO2 interaction (Homo sapiens, UniProt Q9UKV8); experiment: Split Gaussia luciferase reconstitution reporter assay; type: cell-based; parameters: expressed in transfected cells; lysates used for the in vitro read-out; conditions: in the presence of cisplatin, IVIS
Description: The relative orientation of peptide-binding site and AGO2 pocket was depicted. […] The recombinant AGO2 protein was immobilized on CM5 chip and incubated with a serial dilution (from 625 to 10000 nM) of the two peptides, respectively. The association and dissociation between TAT-11, TAT-26 and immobilized AGO2 were tested by SPR (top). The association rate constant (Ka), dissociation rate constant (Kd), and equilibrium dissociation constant (KD) were calculated and presented in the chart (bottom).
FIG. 14A provides schematic presentation of the constructs of full-length, C-terminus, and N-terminus of MSI1 as well as wild-type AGO2 for purifying recombinant proteins. FIG. 14B provides pull-down assay with recombinant MSI1 and AGO2 proteins showing that the C-terminus of MSI1 is essential for the direct MSI1/AGO2 interaction. […] FIG. 14D provides the schematic illustration of the split luciferase reconstitution imaging system to real-time monitor the interaction between MSI1 and AGO2.
To use Gaussia luciferase (Gluc) for detecting protein-protein interaction, we split Gaussia luciferase into NGluc (N-terminal Gluc, 106 a.a.) and CGluc (C-terminal Glue. 79 a.a.)^53,54. The two fragments were amplified by polymerase chain reaction (PCR) and subjected to construct fusion protein with MSI1 and AGO2 by the pcDNA 3.1 and pCMV backbone, respectively. Each fusion protein contains a flexible linker (GGGGS)2 between the protein and polypeptides of split luciferase^55,56. Stable cell lines were obtained by stable transfection of both fusion protein expressive plasmids in 05 MG GBM cell line with Hygromycin B (Sigma Aldrich Co., St. Louis, […]., USA) and G418 sulfate (Merck Co., Berlin, Germany). […] The bioluminescent signals were acquired by Wallac 1420 Victor^2 Microplate Reader (Perkin Elmer, Waltham. Mass., USA) equipped with auto-dispenser to avoid rapid decay of GLuc. […] The region of interests (ROI) was automatically chosen by the Living Image 4.2 software and quantified as photon flux in a certain area per second (photons/s/cm^2).

[1] = system: MSI1 translocation into the cytosol in 05 MG cells; experiment: MSI1 subcellular translocation (immunostaining, fractionation immunoblot); type: cell-based, human; conditions: cisplatin 30 μM, 24 hours
Description: Magnifying power: 200× (top) and 600× (bottom). Quantitation of cells expressing cytoplasmic or nuclear MSI1 is shown in the bar graph on the right. FIG. 1B 05 MG cells pre-treated with or without nuclear export inhibitor leptomycinB (LMB) (10 ng/mL, 2 h) under normoxia or hypoxia conditions for 24 hr were subjected to anti-MSI1 (green) immunostaining and DAPI (blue) nuclear counterstaining. Images were acquired from Carl Zeiss confocal microscope system. The intensity of green fluorescence in nuclear and cytosol was quantified and shown as relative percentage in the graph at the right. […] FIG. 1D provides a schematic showing the mutation sites in the NLS (orange) and NES (red) of human MSI1. All constructs were sub-cloned into p-3×Flag-Myc-CMV expression vector. […] Images were acquired from Carl Zeiss confocal microscope system, and the quantification of fluorescent intensity in the nuclear and cytosolic compartments was shown as relative percentage in the graph at the left. […] Tumor size was measure with a caliper at the indicated time points. […] The tumor size was measured with a caliper at the indicated time points. […]
The ratio of MSI1 expression in each group was presented in the graph. […] Hypoxia-induced apoptosis was withdrawn by the over-expression of wild-type MSI1 but not in mutant MSI1 groups determined by annexin V staining, MTT assay, and colony forming assay. […]

05 MG/MSI1-wt xenografts = experiment: Cisplatin treatment of subcutaneous xenografts overexpressing MSI1-wt; type: in vivo, mice; conditions: 477.437 mm^3 without cisplatin
Description: Magnifying power: 200× (top) and 600× (bottom). Quantitation of cells expressing cytoplasmic or nuclear MSI1 is shown in the bar graph on the right. FIG. 1B 05 MG cells pre-treated with or without nuclear export inhibitor leptomycinB (LMB) (10 ng/mL, 2 h) under normoxia or hypoxia conditions for 24 hr were subjected to anti-MSI1 (green) immunostaining and DAPI (blue) nuclear counterstaining. Images were acquired from Carl Zeiss confocal microscope system. The intensity of green fluorescence in nuclear and cytosol was quantified and shown as relative percentage in the graph at the right. […] FIG. 1D provides a schematic showing the mutation sites in the NLS (orange) and NES (red) of human MSI1. All constructs were sub-cloned into p-3×Flag-Myc-CMV expression vector. […] Images were acquired from Carl Zeiss confocal microscope system, and the quantification of fluorescent intensity in the nuclear and cytosolic compartments was shown as relative percentage in the graph at the left. […] Tumor size was measure with a caliper at the indicated time points. […] Images were acquired from Carl Zeiss confocal microscope system. […] The tumor size was measured with a caliper at the indicated time points. […]
All procedures involving animals were performed in accordance with the institutional animal welfare guidelines of Taipei Veterans General Hospital. […] Tumor size was measured with calipers^38. […]

Sequence of MSI1/AGO2 interaction (Q9UKV8 whole entry): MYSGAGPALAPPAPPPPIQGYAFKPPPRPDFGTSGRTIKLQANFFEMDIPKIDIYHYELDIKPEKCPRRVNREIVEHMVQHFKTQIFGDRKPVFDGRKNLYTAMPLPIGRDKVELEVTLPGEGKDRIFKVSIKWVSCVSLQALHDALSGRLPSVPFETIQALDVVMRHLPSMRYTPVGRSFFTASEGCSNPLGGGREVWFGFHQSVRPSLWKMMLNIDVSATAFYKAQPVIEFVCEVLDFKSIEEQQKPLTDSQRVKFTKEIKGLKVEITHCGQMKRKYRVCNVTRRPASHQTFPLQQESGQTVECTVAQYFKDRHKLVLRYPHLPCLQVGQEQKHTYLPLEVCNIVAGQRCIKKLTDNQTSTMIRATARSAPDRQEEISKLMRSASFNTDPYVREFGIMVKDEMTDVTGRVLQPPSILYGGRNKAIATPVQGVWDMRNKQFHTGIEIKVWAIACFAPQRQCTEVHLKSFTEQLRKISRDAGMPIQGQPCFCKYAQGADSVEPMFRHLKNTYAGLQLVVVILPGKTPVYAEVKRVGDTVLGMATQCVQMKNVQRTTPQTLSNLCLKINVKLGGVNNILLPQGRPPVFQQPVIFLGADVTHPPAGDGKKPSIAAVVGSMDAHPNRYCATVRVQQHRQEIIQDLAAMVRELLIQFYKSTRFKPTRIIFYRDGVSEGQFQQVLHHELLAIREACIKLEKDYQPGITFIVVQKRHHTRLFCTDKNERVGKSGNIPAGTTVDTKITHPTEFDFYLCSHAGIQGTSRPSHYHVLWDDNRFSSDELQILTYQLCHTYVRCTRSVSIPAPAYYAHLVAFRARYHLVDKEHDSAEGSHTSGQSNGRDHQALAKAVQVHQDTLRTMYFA

Compound: N.N.[Cl][Pt][Cl] [cisplatin]
- bioluminescent signal of split Gaussia luciferase (MSI1/AGO2 interaction): increase of the bioluminescent signal
- translocation of MSI1 in 05 MG cells [1]: induced
- tumor volume at day 22 (05 MG/MSI1-wt xenografts): 774.365 mm^3
